What was measured:
[1] = tested on: triacylglycerol lipase EC 3.1.1.3; assay: Lipase L-1754 hydrolysis of p-nitrophenyl caprate, butyrate, caproate under gaseous atmospheres (400 nm); assay type: biochemical, Candida cylindracea; details: for Maximum inhibition of lipase activity, PNP-Butyrate: substrate PNP-Butyrate, 10° C.; for Maximum enhancement of lipase activity, PNP-Caproate: substrate PNP-Caproate
Description: FIGS. 4-6 show a typical and similar enzyme assay carried out on the same enzyme using PNP-butyrate showing inhibition of activity at 10° C. 25° C. and 35° C., respectively. Significant depression in rate is noted.
(§1) Lipase catalysis of lipid conversion was tested using triglycerides, paranitrophenyl (PNP) acetate, PNP-butyrate, PNP-caprate, PNP-caprylate, PNP-caproate, olive oil, standard lipids and triglycerides, and other lipids. […]
(§2) Testing Of An Adequate Procedure
(§3) To Follow Lipase L-1754/p-Nitrophenyl
caprate N-0252, p-Nitrophenyl butyrate N-9876, p-Nitrophenyl
caproate N-0502, p-Nitrophenyl caprylate N-0752
PURPOSE: Testing protocol to follow Lipase L-17,54 using p-
ENZYME: Lipase (Sigma No. L-1754)
Type VII from Candida cylindracea w/ 30% lactose
p-Nitrophenyl caprate (Sigma No. N-02521)
p-Nitrophenyl butyrate (Sigma No. N-9876)
p-Nitrophenyl caproate (Sigma No. N-0502)
Results: We will do gas runs using p-nitrophenyl caproate and
p-nitrophenyl caprate as substrates. These will be compared to
p-nitrophenyl caproate N-0502
p-nitrophenyl caprate N-0252

[2] = tested on: triacylglycerol lipase EC 3.1.1.3; assay: Lipase hydrolysis of p-nitrophenyl acetate under gaseous atmospheres (spectrophotometric, 400 nm); assay type: biochemical, Rhizonus arrhizus; details: substrate PNP-Acetate, +25° C.
Description: FIGS. 1-3 show a typical enzyme assay carried out at 10, 25 and 35 degrees °C. for triacylglycerol lipase catalysts of paranitrophenol acetate hydrolysis.
as §1, §2, §3
Effect of Air, Ne, Ar, Kr, Xe, N2 and O2 on
Lipase L-1754 using p-nitrophenyl acetate
ENZYME: Lipase (Sigma No. L-4384)
Type XI from Rhizonus arrhizus
p-Nitrophenyl acetate (Sigma No. N-8130)
8 DIFFERENT GASEOUS ATMOSPHERES:
3 DIFFERENT TEMPERATURES:
R = 2.0 ml Soln D + 0.5 ml Soln A
fill the cuvettes with 2.0 ml of (p-nitrophenyl
Fill 8 serum vials with 5.0 ml of (lipase
Bubble 10x10cc of the appropriate gas in T1G1 ... 5
Bubble 10xl0cc of the appropriate gas in G1 ... 5
Remove G1 ... 5 serum vials from fridge. Sample soln

Compound	Maximum inhibition of lipase activity, PNP-Butyrate [1] [%]	Maximum enhancement of lipase activity, PNP-Acetate [2]	Maximum enhancement of lipase activity, PNP-Caprate ([1]; substrate PNP-Caprate, 35° C.)	Maximum enhancement of lipase activity, PNP-Caproate ([1]; 25° C.)	Maximum enhancement of lipase activity, PNP-Caproate ([1]; +35 degrees)
[Kr] [Kr, krypton]	-25	+11%			
[Ar] [Ar, argon]			+14%	+37%	
[Xe] [Xe, xenon]	26				+23%

Reference: patent US5364777A, “Method of improving lipase activity using noble gases” (American Air Liquide, priority 1992, dated 1994)
